In brackets after ≈: the same amount, converted by molar mass. Non-standard residues stand in square brackets, D forms with d. Residues, ends and D or L forms follow the SMILES beside them. Ac6c = NC1(C(=O)O)CCCCC1; Ac5c = NC1(C(=O)O)CCCC1
Key:
[1] = Antibacterial activity against Clostridium difficile VIP 10463 ATCC 43255 by two fold serial dilution method; assay type: functional, Clostridium difficile ATCC 43255; details: Clostridioides difficile
Streptococcus pneumoniae = experiment: Antibacterial activity against Streptococcus pneumoniae 262 ATCC 49619 by two fold serial dilution method; assay type: functional
Staphylococcus aureus [2] = experiment: Antibacterial activity against methicillin-resistant Staphylococcus aureus USA 300 NRS 384 by two fold serial dilution method; assay type: functional
[3] = Antiproliferative activity against human IGROV1 cells after 72 hrs by Celltiter-Glo luminescent cell viability assay; assay type: functional, cell-based; details: IGROV-1, 72 h
[4] = Antiproliferative activity against human UACC62 cells after 72 hrs by Celltiter-Glo luminescent cell viability assay; assay type: functional, cell-based; details: UACC-62, 72 h
[5] = Antiproliferative activity against human DLD1 cells after 72 hrs by Celltiter-Glo luminescent cell viability assay; assay type: functional, cell-based; details: DLD-1, 72 h
[6] = Antibacterial activity against Yersinia pestis CO92 NR641 by two fold serial dilution method; assay type: functional
[7] = test system: Mycobacterium tuberculosis; experiment: Antibacterial activity against Mycobacterium tuberculosis H37Ra ATCC 2517 by two fold serial dilution method; assay type: functional
CFPAC-1 = experiment: Antiproliferative activity against human CFPAC-1 cells after 72 hrs by Celltiter-Glo luminescent cell viability assay; assay type: functional, cell-based; details: CFPAC-1, 72 h
[8] = test system: Burkholderia pseudomallei; experiment: Antibacterial activity against Burkholderia pseudomallei AHS 1 NCTC 8016 by two fold serial dilution method; assay type: functional
Pseudomonas aeruginosa = experiment: Antibacterial activity against Pseudomonas aeruginosa Boston 41501 ATCC 27853 by two fold serial dilution method; assay type: functional
Enterococcus faecalis = experiment: Antibacterial activity against Enterococcus faecalis Portland ATCC 29212 by two fold serial dilution method; assay type: functional; details: ATCC 29212 Portland
Acinetobacter baumannii = experiment: Antibacterial activity against Acinetobacter baumannii B5W71 ATCC 15149 by two fold serial dilution method; assay type: functional
[9] = Antibacterial activity against Bacillus anthracis Ames NR-3838 by two fold serial dilution method; assay type: functional, Bacillus anthracis str. Ames
MCF7 = experiment: Antiproliferative activity against human MCF7 cells after 72 hrs by Celltiter-Glo luminescent cell viability assay; assay type: functional, cell-based; details: MCF7, 72 h
[10] = Antiproliferative activity against human COLO205 cells after 72 hrs by Celltiter-Glo luminescent cell viability assay; assay type: functional, cell-based; details: COLO 205, 72 h
RL = experiment: Antiproliferative activity against human RL cells after 72 hrs by Celltiter-Glo luminescent cell viability assay; assay type: functional, cell-based
A498 = experiment: Antiproliferative activity against human A498 cells after 72 hrs by Celltiter-Glo luminescent cell viability assay; assay type: functional, cell-based; details: A498, 72 h
[11] = Antiproliferative activity against human MIAPaCa2 cells after 72 hrs by Celltiter-Glo luminescent cell viability assay; assay type: functional, cell-based; details: MIA PaCa-2, 72 h
[12] = Antiproliferative activity against human PC3 cells after 72 hrs by Celltiter-Glo luminescent cell viability assay; assay type: functional, cell-based; details: PC-3, 72 h
NCI-H69 = experiment: Antiproliferative activity against human NCI-H69 cells after 72 hrs by Celltiter-Glo luminescent cell viability assay; assay type: functional, cell-based; details: NCI-H69, 72 h
Klebsiella aerogenes = experiment: Antibacterial activity against carbapenem-resistant Enterobacter aerogenes NCDC819-56 ATCC 13048 by two fold serial dilution method; assay type: functional
A549 = experiment: Antiproliferative activity against human A549 cells after 72 hrs by Celltiter-Glo luminescent cell viability assay; assay type: functional, cell-based; details: A549, 72 h
[13] = Antibacterial activity against Salmonella enterica LT2 Typhimurium ATCC 15277 by two fold serial dilution method; assay type: functional
[14] = Antibacterial activity against carbapenem-resistant Klebsiella pneumoniae K6 ATCC 700603 by two fold serial dilution method; assay type: functional, Klebsiella pneumoniae 700603
[15] = Antibacterial activity against Francisella tularensis SCHU S4 NR-643 by two fold serial dilution method; assay type: functional
Neisseria gonorrhoeae = experiment: Antibacterial activity against Neisseria gonorrhoeae F-18 ATCC 49226 by two fold serial dilution method; assay type: functional
Staphylococcus aureus [16] = experiment: Antibacterial activity against Staphylococcus aureus Seattle 1945 ATCC 25923 by two fold serial dilution method; assay type: functional

Row | Structure (SMILES) | MIC [1] | MIC (Streptococcus pneumoniae) | MIC (Staphylococcus aureus [2]) | IC50 [3] | IC50 [4] | IC50 [5] | MIC [6] | MIC [7] | IC50 (CFPAC-1) | MIC [8] | MIC (Pseudomonas aeruginosa) | MIC (Enterococcus faecalis) | MIC (Acinetobacter baumannii) | MIC [9] | IC50 (MCF7) | IC50 [10] | IC50 (RL) | IC50 (A498) | IC50 [11] | IC50 [12] | also measured
1 | CN[C@@H](CC(C)C)C(=O)N[C@H]1C(=O)N[C@@H](CC(N)=O)C(=O)N[C@H]2C(=O)N[C@H]3C(=O)N[C@H](C(=O)N[C@@H](C(=O)O)c4cc(O)cc(O)c4-c4cc3ccc4O)[C@H](O)c3ccc(c(Cl)c3)Oc3cc2cc(c3O[C@H]2O[C@@H](CO)[C@H](O)[C@@H](O)[C@@H]2O[C@@H]2C[C@@](C)(N)[C@@H](O)[C@@H](C)O2)Oc2ccc(cc2Cl)[C@H]1O | 0.17 µM (≈ 0.246 µg/mL) | 1.99 µM (≈ 2.88 µg/mL) | 2.7 µM (≈ 3.91 µg/mL) | – | – | – | – | – | – | – | – | – | – | – | – | – | – | – | – | – | –
2 | CC(=O)NCC(=O)N[C@@H](Cc1ccccc1)C(=O)NC1(C(=O)NCC(=O)NC2(C(=O)N[C@@H](CCCCN)C(=O)NC3(C(=O)NCC(=O)NC4(C(=O)N[C@@H](Cc5ccccc5)C(=O)NC5(C(=O)NCC(=O)NC6(C(=O)NCC(=O)N[C@@H](CCCCN)C(=O)NC7(C(=O)N[C@@H](CCCCN)C(=O)N[C@@H](CCCCN)C(=O)N[C@@H](CCCCN)C(=O)N[C@@H](CCCCN)C(N)=O)CCCC7)CCCC6)CCCC5)CCCC4)CCCC3)CCCC2)CCCC1 (Ac-GF[Ac5c]G[Ac5c]K[Ac5c]G[Ac5c]F[Ac5c]G[Ac5c]GK[Ac5c]KKKK-NH2) | 1.43 µM (≈ 3.13 µg/mL) | > 46 µM | > 46 µM | > 7.5 µM | > 7.5 µM | > 7.5 µM | > 46 µM | 11.4 µM (≈ 25 µg/mL) | > 7.5 µM | > 46 µM | 22.9 µM (≈ 49.9 µg/mL) | > 46 µM | 2.86 µM (≈ 6.25 µg/mL) | > 46 µM | > 7.5 µM | > 7.5 µM | > 7.5 µM | > 7.5 µM | > 7.5 µM | > 7.5 µM | IC50 (NCI-H69): > 7.5 µM; MIC (Klebsiella aerogenes): > 46 µM; IC50 (A549): > 7.5 µM; MIC [13]: 5.71 µM (≈ 12.5 µg/mL); MIC [14]: > 46 µM; MIC [15]: 22.9 µM (≈ 50 µg/mL); MIC (Neisseria gonorrhoeae): 22.9 µM (≈ 50 µg/mL); MIC (Staphylococcus aureus [16]): > 46 µM
3 | CC(=O)NCC(=O)N[C@@H](Cc1ccccc1)C(=O)NC1(C(=O)NCC(=O)NC2(C(=O)N[C@@H](CCCNC(=N)N)C(=O)NC3(C(=O)NCC(=O)NC4(C(=O)N[C@@H](Cc5ccccc5)C(=O)NC5(C(=O)NCC(=O)NC6(C(=O)NCC(=O)N[C@@H](CCCNC(=N)N)C(=O)NC7(C(=O)N[C@@H](CCCNC(=N)N)C(=O)N[C@@H](CCCNC(=N)N)C(=O)N[C@@H](CCCNC(=N)N)C(=O)N[C@@H](CCCNC(=N)N)C(N)=O)CCCC7)CCCC6)CCCC5)CCCC4)CCCC3)CCCC2)CCCC1 (Ac-GF[Ac5c]G[Ac5c]R[Ac5c]G[Ac5c]F[Ac5c]G[Ac5c]GR[Ac5c]RRRR-NH2) | 5.31 µM (≈ 12.5 µg/mL) | > 43 µM | 5.31 µM (≈ 12.5 µg/mL) | > 7.5 µM | > 7.5 µM | > 7.5 µM | > 43 µM | 21.2 µM (≈ 49.9 µg/mL) | > 7.5 µM | > 43 µM | 2.65 µM (≈ 6.24 µg/mL) | 5.31 µM (≈ 12.5 µg/mL) | 2.65 µM (≈ 6.24 µg/mL) | 2.65 µM (≈ 6.24 µg/mL) | > 7.5 µM | > 7.5 µM | 3.7 µM | > 7.5 µM | > 7.5 µM | > 7.5 µM | IC50 (NCI-H69): 7.1 µM; MIC (Klebsiella aerogenes): > 42.4 µM; IC50 (A549): > 7.5 µM; MIC [13]: 42.4 µM (≈ 99.9 µg/mL); MIC [14]: 5.31 µM (≈ 12.5 µg/mL); MIC [15]: 21.2 µM (≈ 49.9 µg/mL); MIC (Neisseria gonorrhoeae): 5.31 µM (≈ 12.5 µg/mL); MIC (Staphylococcus aureus [16]): 2.65 µM (≈ 6.24 µg/mL)
4 | CC(=O)NCC(=O)N[C@@H](Cc1ccccc1)C(=O)NC1(C(=O)NCC(=O)NC2(C(=O)N[C@@H](CCCCN)C(=O)NC3(C(=O)NCC(=O)NC4(C(=O)N[C@@H](Cc5ccccc5)C(=O)NC5(C(=O)NCC(=O)NC6(C(=O)NCC(=O)N[C@@H](CCCCN)C(=O)NC7(C(=O)N[C@@H](CCCCN)C(=O)N[C@@H](CCCCN)C(=O)N[C@@H](CCCCN)C(=O)N[C@@H](CCCCN)C(N)=O)CCCC7)CCCCC6)CCCC5)CCCCC4)CCCC3)CCCCC2)CCCC1 (Ac-GF[Ac5c]G[Ac6c]K[Ac5c]G[Ac6c]F[Ac5c]G[Ac6c]GK[Ac5c]KKKK-NH2) | 1.4 µM (≈ 3.12 µg/mL) | > 45 µM | > 45 µM | > 7.5 µM | > 7.5 µM | > 7.5 µM | > 45 µM | 22.4 µM (≈ 49.9 µg/mL) | > 7.5 µM | > 45 µM | 5.61 µM (≈ 12.5 µg/mL) | > 45 µM | > 45 µM | 22.4 µM (≈ 49.9 µg/mL) | > 7.5 µM | > 7.5 µM | 6.7 µM | > 7.5 µM | > 7.5 µM | > 7.5 µM | IC50 (NCI-H69): 5.9 µM; MIC (Klebsiella aerogenes): > 45 µM; IC50 (A549): > 7.5 µM; MIC [13]: 11.2 µM (≈ 25 µg/mL); MIC [14]: 44.8 µM (≈ 99.9 µg/mL); MIC [15]: 22.4 µM (≈ 49.9 µg/mL); MIC (Neisseria gonorrhoeae): 11.2 µM (≈ 25 µg/mL); MIC (Staphylococcus aureus [16]): 44.5 µM (≈ 99.1 µg/mL)

Source: ChEMBL document CHEMBL3822432, “Antibacterial and anticancer activity of a series of novel peptides incorporating cyclic tetra-substituted C(α) amino acids” (Bioorg Med Chem, 2016)
